Measured values as given in US5792622A, “Assay for chemicals” (priority 1995, dated 1998).
pIC50: −log10 of the molar value. ≈ marks a conversion by molar mass, not a printed value. Like-named read-outs stand apart in the source and are kept apart here.

Legend:
[1] = Method: Solid phenol was dissolved in water and added to the reaction tubes.
R. meliloti [2] = assay: microbe, parasite or virus in culture; assay type: cell-based
R. meliloti [3] = conditions: cited from earlier work
R. meliloti NSI = assay: Inhibition of growth of R. meliloti NSI; assay type: cell-based; conditions: read-out: concentration inhibiting growth 50%
Method: Typically, R. meliloti is grown in medium with 10-20 uM calcium. Magnesium sulfate, at 59.9 ppm, is 0.2435 mM. The medium MDM contains 0.6 mm Magnesium chloride; this is a concentration found in most defined media. […] CDM, the medium used in the experiments with the assay of the invention, is 0.81 mM with respect to magnesium.

[4] = Table 9; cited from earlier work
E. coli = assay: Inhibition of tetrazolium dye reduction by E. coli; assay type: cell-based
Method: The other strains of bacteria, mixed in a buffer with various toxic chemicals, which were tested with the tetrazolium dye, gave varying results. Some bacteria reduced the dye, but the reduction was not inhibited appreciably by toxic chemicals. The absorbance of tetrazolium by Rhodobacter sphaeroides was not inhibited by copper. E. coli reduced the dye, but reduction was not inhibited by xylene. […] FIG. 1 is a graph showing data comparing the absorbance of the bacteria R. meliloti and E. coli at A590 varying between 0.0 and 0.3 in reacting with different toxins.

ClC(Cl)(Cl)Cl [Carbon tetrachloride]
miscibility in water [1]: very immiscible in water
IC50 (R. meliloti [2]; Sinorhizobium meliloti, Table 4, organic compounds, read-out: average (ppm), concentration giving 50% inhibition of dye reduction): 3530 µg/mL (≈ 22.9 mM)

N#CC(C#N)=NNc1ccc(OC(F)(F)F)cc1 [FCCP, carbonyl-cyanide p(triflouromethoxy)phenylhydrozone]
IC50 (R. meliloti [2]): only a few μl
IC50 (R. meliloti [2]; Sinorhizobium meliloti, read-out: average (ppm), concentration giving 50% inhibition of dye reduction): 0.114 µg/mL (≈ 0.000449 mM)
inhibition of tetrazolium reduction compared with DNP (R. meliloti [3]): at a much lower concentration than does DNP

[Cl-].[Cl-].[Mg+2] [MgCl2, Magnesium chloride]
pIC50 (R. meliloti NSI): 1.57

Xylene
Microtox ppm [4]: .70-9.25 ppm
ppm (50% inhibition of reduction) (R. meliloti [2]; Table 5, 10,000 ppm stock method): 151 ppm
ppm (50% inhibition of reduction) (R. meliloti [2]; Table 5, QSAR method: aqueous phase assayed, hydrocarbon in water estimated by QSAR solubility model): 30.3 ppm
ppm (50% inhibition of reduction) (R. meliloti [2]; Table 5, direct method): 476 ppm
Rhizobium/Tetrazolium ppm (R. meliloti [2]; Table 9): 146-452 ppm
sensitivity of Rhizobium/Tetrazolium assay compared with Microtox assay (R. meliloti [2]; ratio of the inhibitory concentrations): at least an order of magnitude more sensitive than the Rhizobium/Tetrazolium assay
inhibition of dye reduction (E. coli): not inhibited
